Source: article PMC11301636, “Supramolecular delivery of dinuclear ruthenium and osmium MCU inhibitors” (Inorganic Chemistry Frontiers, 2024)

How the values were obtained:
[1] = target: T1, mitochondrial calcium uniporter (MCU) (Homo sapiens, UniProt Q8NE86); experiment: mCa2+ uptake inhibition in digitonin-permeabilized HEK293T cells; format: cell-based
T1 sequence (Q8NE86 51-351): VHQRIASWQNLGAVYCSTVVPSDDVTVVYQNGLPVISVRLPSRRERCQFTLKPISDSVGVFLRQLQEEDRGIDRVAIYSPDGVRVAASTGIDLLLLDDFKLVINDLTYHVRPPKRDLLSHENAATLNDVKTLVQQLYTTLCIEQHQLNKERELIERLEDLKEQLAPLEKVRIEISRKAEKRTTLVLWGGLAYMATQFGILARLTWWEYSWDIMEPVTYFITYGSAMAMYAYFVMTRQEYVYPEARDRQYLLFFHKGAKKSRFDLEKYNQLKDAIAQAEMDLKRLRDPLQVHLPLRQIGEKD

[2] = target: T1, mitochondrial calcium uniporter (MCU); experiment: mCa2+ uptake inhibition in digitonin-permeabilized HEK293T cells (Calcium Green 5N); format: cell-based

IC50 [1]: 90.9 ± 1.3 nM
IC50 [2]: 5.7 ± 0.3 nM
Substance: Os245
